This note sets out measurements from US10189842B2 (Agency for Science, Technology and Research, priority 2013, dated 2019).

A word on the IC50: it is the concentration that gives 50% inhibition. The low end stands for greater potency in that assay, the high end for weaker potency in that assay.

One assay deals with HEK293-STF3A cells. The experiment in a line: STF3A assay (luciferase reporter). Format: cell-based, Human. To be noted: 1 day of treatment. An excerpt:
HEK293-STF cell line was modified from Human embryonic kidney cell line HEK293 transfected with the STF reporter. HEK293-STF3A cell line was further modified from HEK293-STF cell line to express Wnt3A. This cell line was used to identify compounds that regulate either early or late signaling components of the Wnt pathway. These two cell lines were obtained from David Virshup's laboratory, Duke-NUS. L-Wnt3A (ATCC, #CRL-2647) cell line was used for providing Wnt3A conditioned media. The three cell lines were grown in DMEM with 10% FBS incubated in 37° C. with 5% CO2.
2×10^4 HEK293-STF3A cells in 75 μl culture media were seeded in each well of white 96 well plates (Greiner #655098) and incubated overnight at 37° C. 25 μl serially diluted compound was added to the cells to give final concentration of 50 μM to 1.5 nM. After 1 day of treatment, 100 μl of Steady-Glo Luciferase Assay reagent (#E2520, Promega) was added to each well and incubated for 10 minutes at room temperature. Luminescence was measured using Tecan Safire2 plate reader.
Background: Reporter assays use an easily measured gene product as a stand-in for the process of interest.
Molecule “4-(2-methyl-6,7-dihydropyrazolo[1,5-a]pyrimidin-4(5H)-yl)-N-(4-(2-methylthiazol-4-yl)phenyl)-4-oxobutanamide [Compound 32]” returned an IC50 below 0.1 µM.

Still in this assay, the particulars now being: Homo sapiens, 24 h, 1 day of treatment.
In turn, `Cc1cc(NC(=O)CCC(=O)N2CCCn3nc(C)cc32)on1` [Compound 1, 4-(2-methyl-6,7-dihydropyrazolo[1,5-a]pyrimidin-4(5H)-yl)-N-(3-methylisoxazol-5-yl)-4-oxobutanamide] registered a half-maximal inhibitory concentration (IC50) above 10 µM.
On the same count and under the same terms, the figure for `Cc1cc2n(n1)CCCN2C(=O)CCC(=O)Nc1cc(-c2ccccc2)no1` [Compound 2, 4-(2-methyl-6,7-dihydropyrazolo[1,5-a]pyrimidin-4(5H)-yl)-4-oxo-N-(3-phenylisoxazol-5-yl)butanamide] is below 1 µM.
Still for that read-out and setting: the value for `Cc1cc2n(n1)CCCN2C(=O)CCC(=O)Nc1cc(-c2cccc(Cl)c2)no1` [Compound 3, N-(3-(3-chlorophenyl)isoxazol-5-yl)-4-(2-methyl-6,7-dihydropyrazolo[1,5-a]pyrimidin-4(5H)-yl)-4-oxobutanamide] was below 0.1 µM.
Same read-out and setting: the value for `Cc1cc2n(n1)CCCN2C(=O)CCC(=O)Nc1oncc1-c1ccccc1` [Compound 4, 4-(2-methyl-6,7-dihydropyrazolo[1,5-a]pyrimidin-4(5H)-yl)-4-oxo-N-(4-phenylisoxazol-5-yl)butanamide] was above 10 µM; that for `Cc1cc2n(n1)CCCN2C(=O)CCC(=O)Nc1cc(-c2ccc(Cl)cc2)no1` [Compound 5, N-(3-(4-chlorophenyl)isoxazol-5-yl)-4-(2-methyl-6,7-dihydropyrazolo[1,5-a]pyrimidin-4(5H)-yl)-4-oxobutanamide] was below 0.1 µM.
Molecule `Cc1cc2n(n1)CCCN2C(=O)CCC(=O)Nc1cc(-c2ccccc2Cl)no1` [Compound 6, N-(3-(2-chlorophenyl)isoxazol-5-yl)-4-(2-methyl-6,7-dihydropyrazolo[1,5-a]pyrimidin-4(5H)-yl)-4-oxobutanamide] displayed a concentration for half-maximal inhibition (IC50) above 10 µM.
Still for that read-out and setting: the figure for `Cc1cc2n(n1)CCCN2C(=O)CCC(=O)Nc1cc(-c2ccc(Cl)c(Cl)c2)no1` [Compound 7, N-(3-(3,4-dichlorophenyl)isoxazol-5-yl)-4-(2-methyl-6,7-dihydropyrazolo[1,5-a]pyrimidin-4(5H)-yl)-4-oxobutanamide] is above 10 µM.
In turn, `Cc1cc2n(n1)CCCN2C(=O)CCC(=O)Nc1cc(-c2cccc(F)c2)no1` [Compound 8, N-(3-(3-fluorophenyl)isoxazol-5-yl)-4-(2-methyl-6,7-dihydropyrazolo[1,5-a]pyrimidin-4(5H)-yl)-4-oxobutanamide] registered a half-maximal inhibitory concentration (IC50) below 0.1 µM.
In turn, `Cc1cc2n(n1)CCCN2C(=O)CCC(=O)Nc1cc(-c2cccc(Br)c2)no1` [Compound 9, N-[3-(3-bromophenyl)-1,2-oxazol-5-yl]-4-{2-methyl-5H,6H,7H-pyrazolo[1,5-a]pyrimidin-4-yl}-4-oxobutanamide] had a concentration for half-maximal inhibition (IC50) below 1 µM.
Regarding `COc1cccc(-c2cc(NC(=O)CCC(=O)N3CCCn4nc(C)cc43)on2)c1` [Compound 10, N-[3-(3-methoxyphenyl)-1,2-oxazol-5-yl]-4-{2-methyl-5H,6H,7H-pyrazolo[1,5-a]pyrimidin-4-yl}-4-oxobutanamide], the half-maximal inhibitory concentration (IC50) is below 5 µM.
Still for that read-out and setting: the value for `Cc1cccc(-c2cc(NC(=O)CCC(=O)N3CCCn4nc(C)cc43)on2)c1` [Compound 11, 4-{2-methyl-5H,6H,7H-pyrazolo[1,5-a]pyrimidin-4-yl}-N-[3-(3-methylphenyl)-1,2-oxazol-5-yl]-4-oxobutanamide] was above 10 µM.
Still for that read-out and setting: the figure for `Cc1cc2n(n1)CCCN2C(=O)CCC(=O)Nc1cc(-c2ccccc2C)no1` [Compound 12, 4-(2-methyl-6,7-dihydropyrazolo[1,5-a]pyrimidin-4(5H)-yl)-4-oxo-N-(3-(o-tolyl)isoxazol-5-yl)butanamide] is below 0.1 µM; for `Cc1cc2n(n1)CCCN2C(=O)CCC(=O)Nc1cc(-c2cccc(C(F)(F)F)c2)no1` [Compound 13, 4-{2-methyl-5H,6H,7H-pyrazolo[1,5-a]pyrimidin-4-yl}-4-oxo-N-{3-[3-(trifluoromethyl)phenyl]-1,2-oxazol-5-yl}butanamide] it is above 10 µM.
Same read-out and setting: the figure for `Cc1cc2n(n1)CCCN2C(=O)CCC(=O)Nc1ccc(-c2ccc(C(F)(F)F)cc2)cc1` [Compound 14, 4-(2-methyl-6,7-dihydropyrazolo[1,5-a]pyrimidin-4(5H)-yl)-4-oxo-N-(4′-(trifluoromethyl)-[1,1′-biphenyl]-4-yl)butanamide] is above 10 µM; for `Cc1cc2n(n1)CCCN2C(=O)CCC(=O)Nc1cc(-c2ccc(N)cc2)no1` [Compound 15, N-[3-(4-aminophenyl)-1,2-oxazol-5-yl]-4-{2-methyl-5H,6H,7H-pyrazolo[1,5-a]pyrimidin-4-yl}-4-oxobutanamide] it is above 10 µM; for `Cc1cc2n(n1)CCCN2C(=O)CCC(=O)Nc1cc(-c2cc(Cl)ccn2)no1` [Compound 16, N-(3-(4-chloropyridin-2-yl)isoxazol-5-yl)-4-(2-methyl-6,7-dihydropyrazolo[1,5-a]pyrimidin-4(5H)-yl)-4-oxobutanamide] it is above 10 µM.
The molecule `Cc1cc2n(n1)CCCN2C(=O)CCC(=O)Nc1cc(-c2ccc(Cl)cn2)no1` [Compound 17, N-(3-(5-chloropyridin-2-yl)isoxazol-5-yl)-4-(2-methyl-6,7-dihydropyrazolo[1,5-a]pyrimidin-4(5H)-yl)-4-oxobutanamide] displayed an IC50 above 10 µM.
On the same count and under the same terms, the figure for `Cc1cc2n(n1)CCCN2C(=O)CCC(=O)Nc1cc(-c2cncc(Cl)c2)no1` [Compound 18, N-[3-(5-chloropyridin-3-yl)-1,2-oxazol-5-yl]-4-{2-methyl-5H,6H,7H-pyrazolo[1,5-a]pyrimidin-4-yl}-4-oxobutanamide] is below 5 µM; for `Cc1cc2n(n1)CCCN2C(=O)CCC(=O)Nc1cc(-c2cccnc2)no1` [Compound 19, 4-(2-methyl-6,7-dihydropyrazolo[1,5-a]pyrimidin-4(5H)-yl)-4-oxo-N-(3-(pyridin-3-yl)isoxazol-5-yl)butanamide] it is above 10 µM; for `Cc1cc2n(n1)CCCN2C(=O)CCC(=O)Nc1cc(-c2ccncc2)no1` [Compound 20, 4-{2-methyl-5H,6H,7H-pyrazolo[1,5-a]pyrimidin-4-yl}-4-oxo-N-[3-(pyridin-4-yl)-1,2-oxazol-5-yl]butanamide] it is above 10 µM.
Still for that read-out and setting: the value for `Cc1cc2n(n1)CCCN2C(=O)CCC(=O)Nc1cc(-c2cccc(Cl)c2)nn1C` [Compound 21, N-(3-(3-chlorophenyl)-1-methyl-1H-pyrazol-5-yl)-4-(2-methyl-6,7-dihydropyrazolo[1,5-a]pyrimidin-4(5H)-yl)-4-oxobutanamide] was above 10 µM; that for `Cc1cc2n(n1)CCCN2C(=O)CCC(=O)Nc1nc(-c2cccc(Cl)c2)no1` [Compound 22, N-(3-(3-chlorophenyl)-1,2,4-oxadiazol-5-yl)-4-(2-methyl-6,7-dihydropyrazolo[1,5-a]pyrimidin-4(5H)-yl)-4-oxobutanamide] was above 10 µM; that for `Cc1cc2n(n1)CCCN2C(=O)CCC(=O)Nc1cc(-c2cccc(Cl)c2)on1` [Compound 23, N-[5-(3-chlorophenyl)-1,2-oxazol-3-yl]-4-{2-methyl-5H,6H,7H-pyrazolo[1,5-a]pyrimidin-4-yl}-4-oxobutanamide] was below 1 µM.
Still for that read-out and setting: the value for `Cc1cc2n(n1)CCCN2C(=O)CCC(=O)Nc1ccc(-c2cnco2)cc1` [Compound 24, 4-(2-methyl-6,7-dihydropyrazolo[1,5-a]pyrimidin-4(5H)-yl)-N-(4-(oxazol-5-yl)phenyl)-4-oxobutanamide] was below 5 µM.
In the case of `Cc1cc2n(n1)CCCN2C(=O)CCC(=O)Nc1ccc(-c2nccs2)cc1` [Compound 25], the half-maximal inhibitory concentration (IC50) is below 0.1 µM.
The same measure, in the same setting: the figure for `Cc1cc2n(n1)CCCN2C(=O)CCC(=O)Nc1ccc(-c2nccs2)cn1` [Compound 26, 4-(2-methyl-6,7-dihydropyrazolo[1,5-a]pyrimidin-4(5H)-yl)-4-oxo-N-(5-(thiazol-2-yl)pyridin-2-yl)butanamide] is below 0.1 µM; for `Cc1cc2n(n1)CCCN2C(=O)CCC(=O)Nc1ccc(-n2ccnc2)cc1` [Compound 27, N-(4-(1H-imidazol-1-yl)phenyl)-4-(2-methyl-6,7-dihydropyrazolo[1,5-a]pyrimidin-4(5H)-yl)-4-oxobutanamide] it is below 1 µM.
With `Cc1cc2n(n1)CCCN2C(=O)CCC(=O)Nc1ccc(-c2csc(C)n2)cc1` [Compound 28, 4-(2-methyl-6,7-dihydropyrazolo[1,5-a]pyrimidin-4(5H)-yl)-N-(4-(2-methylthiazol-4-yl)phenyl)-4-oxobutanamide], the IC50 is below 0.1 µM.
On the same count and under the same terms, the figure for `Cc1cc2n(n1)CCCN2C(=O)CCC(=O)Nc1ccc(-c2ccnn2C)cc1` [Compound 29, N-(4-(1-methyl-1H-pyrazol-5-yl)phenyl)-4-(2-methyl-6,7-dihydropyrazolo[1,5-a]pyrimidin-4(5H)-yl)-4-oxobutanamide] is below 1 µM; for `Cc1cc2n(n1)CCCN2C(=O)CCC(=O)Nc1ccc(C(C)(C)C)cc1` [Compound 30, N-(4-(tert-butyl)phenyl)-4-(2-methyl-6,7-dihydropyrazolo[1,5-a]pyrimidin-4(5H)-yl)-4-oxobutanamide] it is above 10 µM; for `Cc1cc2n(n1)CCCN2C(=O)CCC(=O)Nc1ccc(N2CCCC2)cc1` [Compound 31, 4-(2-methyl-6,7-dihydropyrazolo[1,5-a]pyrimidin-4(5H)-yl)-4-oxo-N-(4-(pyrrolidin-1-yl)phenyl)butanamide] it is below 5 µM.
